pIC50: −log10 of the molar value. Where two headings read alike, the source gives them in different places.
Tests used:
[1] = Cytotoxicity assay, Cell-Titer-Glo, HeLa-CD4-LTR-LacZ; settings: human, hela-cd4-ltr-lacz cells, Infectivity CC50, HeLa-CD4-LTR-LacZ
Method: (§1) Next, the activity of these leads against HIV infection was evaluated using the reporter cell line HeLa-CD4-LTR-LacZ, which stably expresses the β-galactosidase (β-Gal) gene under the control of the HIV 5′ LTR. The HIV NL4.3 strain was used for these studies and β-Gal activity was measured 72 hrs post infection (FIG. 3A). Cytotoxicity assays using Cell-Titer-Glo were performed in parallel to assess cell viability (FIG. 3A). […] Their anti-HIV activity was further assessed in acute replication of Jurkat T cells with the NL4.3 strain (FIG. 3A). […] These OM10.1 cells contain a single integrated wild-type provirus, while ACH-2 cells contain a single integrated provirus with a TAR mutation C37T, defective Tat-TAR feedback loop (FIG. 3B).

HIV NL4.3 strain = assay: HIV infectivity assay, reporter cell line HeLa-CD4-LTR-LacZ, β-Gal activity (Tat protein inhibition); assay type: cell-based, HIV-1 (NL4.3); settings: Human immunodeficiency virus 1, read-out: Infectivity IC50, HeLa-CD4-LTR-LacZ
Method: as §1

Compound: Cc1cccc(-n2cc(C(=O)NCCCN3CCCC3=O)c3ccccc32)c1 [compound 46824]
- CC50 ([1]; analogs of TT-44881 (Table 1)): > 100 µM
- pIC50 (HIV NL4.3 strain; analogs of TT-44881 (Table 1)): < 4.00

Compound: O=C(NCCCN1CCCC1=O)c1nc2ccccc2[nH]c1=O [compound 46931]
- CC50 ([1]; analogs of TT-44881 (Table 1)): > 100 µM
- pIC50 (HIV NL4.3 strain; analogs of TT-44881 (Table 1)): 4.52 to 5.00

Compound: O=C(NCCCN1CCCC1=O)c1cn(-c2ccccc2)c2ncc(F)cc12 [compound 46879]
- CC50 ([1]; analogs of TT-44881 (Table 1)): > 100 µM
- pIC50 (HIV NL4.3 strain; analogs of TT-44881 (Table 1)): 4.30 to 6.00

Compound: CS(=O)(=O)N1CCN(C(=O)c2cn(-c3ccccc3)c3ccccc23)CC1 [compound 41798]
- CC50 ([1]; analogs of TT-44881 (Table 1)): > 100 µM
- pIC50 (HIV NL4.3 strain; analogs of TT-44881 (Table 1)): < 4.00

Compound: O=C(Cc1ccc(F)cc1)NCCCn1ccnc1 [Z31795779]
- pIC50 (HIV NL4.3 strain; analogs of TT-44856 (Table 3)): < 4.00

Compound: CC(C(=O)NCCCn1cnc(CNC(=O)OCc2ccccc2)c1)(c1ccccc1)c1ccccc1 [3-64]
- CC50 ([1]; analogs of TT-44856 (Table 3)): 20 to 50 µM
- pIC50 (HIV NL4.3 strain; analogs of TT-44856 (Table 3)): 4.52 to 5.00

Compound: Cc1nccn1CCCNC(=O)C(C)(c1ccccc1)c1ccccc1 [3-52]
- CC50 ([1]; analogs of TT-44856 (Table 3)): > 100 µM
- pIC50 (HIV NL4.3 strain; analogs of TT-44856 (Table 3)): 5.00 to 6.00

Compound: COc1ccc(C(F)(F)F)cc1NC(=O)Cn1cc(C(F)(F)F)cc(F)c1=O [compound 47033]
- CC50 ([1]; analogs of TT-44863 (Table 2)): 50 to 100 µM
- pIC50 (HIV NL4.3 strain; analogs of TT-44863 (Table 2)): 5.00 to 6.00

Compound: O=C(NCCCN1CCCC1=O)c1nn(-c2ccccc2)cc1C1CC1 [compound 47011]
- CC50 ([1]; analogs of TT-44881 (Table 1)): > 100 µM
- pIC50 (HIV NL4.3 strain; analogs of TT-44881 (Table 1)): < 4.00

Compound: O=C(NCCCN1CCCC1=O)c1nn(Cc2ccccc2)c2c1CCC2 [compound 46885]
- CC50 ([1]; analogs of TT-44881 (Table 1)): > 100 µM
- pIC50 (HIV NL4.3 strain; analogs of TT-44881 (Table 1)): < 4.00

Compound: O=C(Cc1ccc2ccccc2c1)NCCCn1ccnc1 [Z31795124]
- pIC50 (HIV NL4.3 strain; analogs of TT-44856 (Table 3)): < 4.00

Compound: N#Cc1ccc(C(F)(F)F)cc1NC(=O)Cn1cc(C(F)(F)F)cc(Cl)c1=O [compound 47061]
- CC50 ([1]; analogs of TT-44863 (Table 2)): > 100 µM
- pIC50 (HIV NL4.3 strain; analogs of TT-44863 (Table 2)): < 4.00

Compound: O=C(NCCCn1ccnc1)c1cc(O)c2cc(Cl)ccc2n1 [3-38]
- CC50 ([1]; analogs of TT-44856 (Table 3)): > 100 µM
- pIC50 (HIV NL4.3 strain; analogs of TT-44856 (Table 3)): < 4.00

Compound: COCCOc1ccccc1NC(=O)Cn1cc(C(F)(F)F)cc(Cl)c1=O [compound 46624]
- CC50 ([1]; analogs of TT-44863 (Table 2)): > 100 µM
- pIC50 (HIV NL4.3 strain; analogs of TT-44863 (Table 2)): < 4.00

Compound: O=C(NCCCn1ccnc1)c1n[nH]c2c1CCC2 [compound 46726]
- CC50 ([1]; analogs of TT-44881 (Table 1)): > 100 µM
- pIC50 (HIV NL4.3 strain; analogs of TT-44881 (Table 1)): < 4.00

Compound: CC(CNC(=O)Cc1c(F)cccc1Cl)Cn1ccnc1 (stereo not drawn) [Z1250741002]
- pIC50 (HIV NL4.3 strain; analogs of TT-44856 (Table 3)): < 4.00

Compound: O=C(Cc1cccc(F)c1)NCCCn1ccnc1 [Z31796183]
- pIC50 (HIV NL4.3 strain; analogs of TT-44856 (Table 3)): < 4.00

Compound: O=C(Cc1ccccc1F)NCCCn1ccnc1 [Z31795827]
- pIC50 (HIV NL4.3 strain; analogs of TT-44856 (Table 3)): < 4.00

Compound: O=C(Cc1c(Cl)cccc1Cl)NCCCn1ccnc1 [Z30217435]
- pIC50 (HIV NL4.3 strain; analogs of TT-44856 (Table 3)): < 4.00

Compound: O=C(Cc1ccccc1Cl)NCCCn1ccnc1 [Z31796195]
- pIC50 (HIV NL4.3 strain; analogs of TT-44856 (Table 3)): < 4.00

Compound: Cc1ccccc1CC(=O)NCCCn1ccnc1 [Z51979592]
- pIC50 (HIV NL4.3 strain; analogs of TT-44856 (Table 3)): < 4.00

Compound: Cc1nccn1CCCNC(=O)C(C)(C)c1ccccc1Cl [Z1119105307]
- pIC50 (HIV NL4.3 strain; analogs of TT-44856 (Table 3)): < 4.00

Compound: O=C(NCCCn1ccnc1)c1ccc(-c2ccccc2)cc1 [Z31795699]
- pIC50 (HIV NL4.3 strain; analogs of TT-44856 (Table 3)): < 4.00

Compound: O=C(NCCCn1ccnc1)N(Cc1ccccc1)Cc1ccccc1 [Z991981670]
- pIC50 (HIV NL4.3 strain; analogs of TT-44856 (Table 3)): < 4.00

Compound: CC(C)(C(=O)NCCCn1ccnc1)c1cccc(C(F)(F)F)c1 [compound 46606]
- CC50 ([1]; analogs of TT-44856 (Table 3)): > 100 µM

Compound: O=C(NCCCn1ccnc1)c1ccc(Oc2ccccc2)cc1 [Z56813845]
- pIC50 (HIV NL4.3 strain; analogs of TT-44856 (Table 3)): < 4.00

Compound: O=C(Cc1cccc2ccccc12)NCCCn1ccnc1 [Z31795406]
- pIC50 (HIV NL4.3 strain; analogs of TT-44856 (Table 3)): < 4.00

Compound: O=C(Cc1ccc2c(c1)CCC2)NCCCn1ccnc1 [Z51979499]
- pIC50 (HIV NL4.3 strain; analogs of TT-44856 (Table 3)): < 4.00

Compound: O=C(Cc1ccc(C(F)(F)F)cc1)NCCCn1ccnc1 [Z236749082]
- pIC50 (HIV NL4.3 strain; analogs of TT-44856 (Table 3)): < 4.00

Compound: O=C(NCCCn1ccnc1)c1ccc2ccccc2c1 [3-34]
- CC50 ([1]; analogs of TT-44856 (Table 3)): > 100 µM

Compound: COc1cccc(CC(=O)NCCCn2ccnc2)c1 [Z31796092]
- pIC50 (HIV NL4.3 strain; analogs of TT-44856 (Table 3)): < 4.00

Compound: O=C(NCCCn1ccnc1)c1ccc2ccccc2c1 [Z31795639]
- pIC50 (HIV NL4.3 strain; analogs of TT-44856 (Table 3)): < 4.00

Compound: O=C(COC(c1ccccc1)c1ccccc1)NCCCn1ccnc1 [Z51979572]
- pIC50 (HIV NL4.3 strain; analogs of TT-44856 (Table 3)): < 4.00

Compound: CC(C)(C(=O)NCCCn1ccnc1)c1cccc(C(F)(F)F)c1 [Z1053536312]
- pIC50 (HIV NL4.3 strain; analogs of TT-44856 (Table 3)): < 4.00

Compound: CC(C(=O)NCCCn1ccnc1)c1c(Cl)cccc1Cl (stereo not drawn) [Z1004969394]
- pIC50 (HIV NL4.3 strain; analogs of TT-44856 (Table 3)): < 4.00

Compound: CNc1ccccc1CC(=O)NCCCn1ccnc1 [Z31794405]
- pIC50 (HIV NL4.3 strain; analogs of TT-44856 (Table 3)): < 4.00

Compound: Cc1ccc(CC(=O)NCCCn2ccnc2)cc1 [Z100612606]
- pIC50 (HIV NL4.3 strain; analogs of TT-44856 (Table 3)): < 4.00

Compound: O=C(CC(c1ccccc1)c1ccccc1)NCCCn1ccnc1 [Z30217483]
- pIC50 (HIV NL4.3 strain; analogs of TT-44856 (Table 3)): < 4.00

From US20260355184A1, “SMALL MOLECULE DEGRADERS OF HIV-1 TAT PROTEIN” (priority 2022, published 2026)
